Source: patent US11360010B1, “Methods and device for controlled cell stretch and imaging” (The Regents of the University of Colorado, a body, priority 2019, dated 2022)
Entries after “also recorded” stand apart in the source; their conditions may differ.

How the values were obtained:
[1] = tested on: mouse embryonic skin fibroblasts (MSFs); test: Live imaging of nuclear area and chromatin condensation (H2b-eGFP) during cyclic stretch routines; assay type: cell-based; conditions: for change in nuclear area / chromatin condensation (H2b histogram kurtosis and skewness): BAPTA 50 μM, KN-62 10 μM, cytochalasin D 2 μM
Experimental: (§1) Transgenic mice harboring a fluorescence tag at the H2b histone—B6.Cg-Tg (HIST1H2BB/EGFP) 1 Pa/J, Stock No: 006069—were obtained from Jackson Laboratory (Bar Harbor, Me.). All animal procedures were performed following Institutional Animal Care & Use Committee approval. Skin from embryonic mice was harvested 18.5 days post-conception. Skin was minced, washed with Hank's Balanced Salt Solution (HBSS), and incubated in 35 mm dishes in shallow medium (˜0.5 mL) to avoid floating of the tissue for 4 days, during which fibroblasts extruded from the tissue. After 4 days, remaining tissue was removed (picked out with a pipette), and extruded cells in the dish were detached using TrypLE (Gibco, Gaithersburg, Md.) and expanded in culture for another 2 days before being seeded into stretch chambers for experiments. The inner well of assembled stretch chambers was ozone activated for 30 s via corona arc discharge (BD-20; Electro-Technic Products) and coated with 50 μg/mL bovine plasma fibronectin (F1141; Sigma-Aldrich) in a total volume of 250 μL overnight at 37° C. Mouse embryonic skin fibroblasts (MSFs) were seeded into stretch chambers at a density of 80,000 cells/cm′ 1 day before experiments. MSFs were extruded and cultured in DMEM (ATCC, Manassas, Va.) containing 10% fetal bovine serum (Gibco), 1% penicillin-streptomycin (Gibco), and 25 mM HEPES (Gibco) at 37° C. and 5% CO2. To inhibit calcium signaling, MSFs were incubated with 50 μM BAPTA (A4926; Sigma-Aldrich) or 10 μM KN-62 (12142; Sigma-Aldrich) 1 h before cyclic strain experiments. To disrupt actin polymerization, MSFs were incubated with 2 μM cytochalasin D (C8273; Sigma-Aldrich) 30 min before experiments. Vehicle controls were incubated with 0.001% DMSO (276855; Sigma-Aldrich) 1 h before experiments. To test the use of chromatin dyes, cells were stained with Hoechst (NucBlue Live ReadyProbes; Life Technologies) 30 min before experiments. Stretch experiments were performed at 25° C. (room temperature) under humidified conditions.
The stretch device was mounted on an inverted epi-fluorescence microscope (Ti-Eclipse; Nikon) with a 60× water immersion objective (0.26 μm/pixel) and an EMCCD camera (iXonEM+; Andor Technology). The surrounding of the microscope was humidified to prevent the water on the objective from evaporating during the 1 h experiment. Oil immersion is also possible, but water immersion provided better image quality with the silicone membranes used.
Using MATLAB, a sinusoidal control signal (1 Hz) was sent to the Arduino controller, resulting in a cyclic stretch routine of the membrane (FIG. 1C), with peak strains set to 5% (−0.1 V), 10% (−0.9 V), and 20% (−2.25 V) as determined by the calibration curve. Cells were cyclically stretched for 30 min, followed by 30 min of rest, during which 2 μm z-stacks (0.5 μm steps) of nuclei were acquired. During the rest period, cells experienced no stretch but a constant magnetic field using the offset Arduino input voltage (0.8 V) that keeps the piston suspended at 0% stretch. For acquisition, the cyclic stretch routine was paused for 1 min to allow for a steady imaging plane and fine readjustments in z-position due to water evaporation. Unstretched control cells (0%) were seeded into stretch chambers but kept stationary on the microscope without any magnetic field applied. Unstretched magnetic control cells (MAG) were placed stationary inside the coil without the piston, and a magnetic field corresponding to a 20% sinusoidal stretch routine was applied.
A custom MATLAB code was used to track nuclear outlines via H2b-eGFP and to generate H2b intensity histograms during an image series, from which changes in nuclear area, H2b skewness, and H2b kurtosis were calculated.

[2] = tested on: mouse embryonic skin fibroblasts (MSFs); test: Perinuclear F-actin and γH2a.x staining after cyclic stretch routines; assay type: cell-based; conditions: BAPTA 50 μM, KN-62 10 μM, cytochalasin D 2 μM
Experimental: as §1
MSFs were fixed in 4% ice-cold paraformaldehyde (PFA) for 10 min, permeabilized with 1% Triton-X100 in phosphate-buffered saline for 15, min and blocked with 10% NGS, 1% bovine serum albumin in 0.1% PBT (0.1% Tween-20 in phosphate-buffered saline) for 60 min. Primary incubation of Phospho-Histone H2A.X Ser139 (9718S; Cell Signaling Technology, Danvers, Mass.) was performed at 4° C. overnight in 0.1% PBT containing 1% bovine serum albumin at 1:400. Secondary incubation of goat anti-rabbit IgG-AF546 (Life Technologies) was performed in primary incubation buffer for 45 min at 22° C. at a dilution of 1:500. F-actin was counterstained with phalloidin-CF405 (Biotium, Fremont, Calif.) for 30 min at a dilution of 1:30. Staining was performed in containment wells. After staining, membranes were cut out of the containment well using a circular punch and mounted cell-side up onto #1.0 glass slides with ProLong Diamond Antifade Mountant (Life Technologies). Image stacks (5 μm, 1 μm step) of multiple nuclei in a 318×318 μm area were acquired on a Nikon MR confocal microscope using a 40× oil immersion objective (0.31 μm/pixel). A custom MATLAB code was used to track nuclear outlines via H2b-eGFP and to quantify perinuclear F-actin intensities and γH2a.x foci in projected image stacks. Only the projected F-actin within the nuclear outline (apical perinuclear F-actin) was counted in this analysis. To account for variations in staining and imaging (the same imaging settings were used), fluorescence channels were histogram normalized. Perinuclear F-actin intensities were calculated as the sum of normalized phalloidin intensities within a nuclear border. DNA damage foci were determined by detecting 2D peaks in the normalized γH2a.x channel using the MATLAB script FastPeakFind (v. 1.7).

[3] = 30 min 5% cyclic strain, 1 Hz, vs NT/VH cells (area increases)
[4] = 30 min 5% cyclic strain, 1 Hz, vs NT/VH cells (condensation decreases)
[5] = 30 min 20% cyclic strain, 1 Hz, vs NT/VH cells (area decreases)
[6] = 30 min 20% cyclic strain, 1 Hz, vs NT/VH cells (condensation increases)
[7] = static magnetic-field-only routine (MAG), no stretch
[8] = after 30 min 5% cyclic stretch, vs NT or VH control cells
[9] = after 30 min 20% cyclic stretch, vs NT or VH control cells
[10] = 20% cyclic strain 30 min, Hoechst-stained vs unstained (H2b) nuclei

Compound	change in nuclear area [1, 3]	chromatin condensation (H2b histogram kurtosis and skewness) [1, 4]	change in nuclear area [1, 5]	change in nuclear area ([1]; 30 min 20% cyclic strain, 1 Hz, vs NT/VH cells (area decreases), listed as BP)	chromatin condensation (H2b histogram kurtosis and skewness) [1, 6]	chromatin condensation (H2b histogram kurtosis and skewness) ([1]; 30 min 20% cyclic strain, 1 Hz, vs NT/VH cells (condensation increases), listed as BP)	change in nuclear area [1, 7]	chromatin condensation (H2b histogram kurtosis and skewness) [1, 7]	number of γH2a.x foci per nucleus (DNA damage, double-strand breaks) [2, 8]	perinuclear F-actin intensities ([2]; after 30 min 5% cyclic stretch, vs NT or VH control cells, listed as BP)	number of γH2a.x foci per nucleus (DNA damage, double-strand breaks) [2, 9]	number of γH2a.x foci per nucleus (DNA damage, double-strand breaks) ([2]; static magnetic-field-only controls (MAG), listed as BP)	change in nuclear area during stretch [1, 10]	chromatin condensation (histogram kurtosis and skewness) during stretch [1, 10]	change in nuclear area during rest ([1]; 30 min rest after 20% cyclic strain, Hoechst-stained vs unstained (H2b) nuclei)	change in nuclear area ([1]; 30 min 20% cyclic strain, 1 Hz, vs NT/VH cells (area decreases), listed as KN)	chromatin condensation (H2b histogram kurtosis and skewness) ([1]; 30 min 20% cyclic strain, 1 Hz, vs NT/VH cells (condensation increases), listed as KN)	perinuclear F-actin intensities ([2]; after 30 min 5% cyclic stretch, vs NT or VH control cells, listed as KN)	number of γH2a.x foci per nucleus (DNA damage, double-strand breaks) ([2]; static magnetic-field-only controls (MAG), listed as KN)
O=C(O)CN(CC(=O)O)c1ccccc1OCCOc1ccccc1N(CC(=O)O)CC(=O)O [BAPTA]	abrogated the increase in nuclear area	abrogated the increase in nuclear area and decrease in chromatin condensation	only minorly effected	had no effect	only minorly effected	had no effect	interfered with the slight decrease in nuclear area	interfered with the slight decrease in nuclear area and increase in chromatin condensation	showed no difference	abrogated increases; also recorded: abrogated the increase	showed no difference	increased DNA damage							
CCOc1ccc(-c2nc3ccc(-c4nc5ccc(N6CCN(C)CC6)cc5[nH]4)cc3[nH]2)cc1 [Hoechst, Hoechst 33342]													reduction in nuclear area similar to unstained nuclei	reduced chromatin condensation; also recorded: Reduced chromatin compaction	no regain in nuclear areas; also recorded: no recovery; also recorded: no relaxation				
CN([C@@H](Cc1ccc(OS(=O)(=O)c2cccc3cnccc23)cc1)C(=O)N1CCN(c2ccccc2)CC1)S(=O)(=O)c1cccc2cnccc12 [KN-62]	abrogated the increase in nuclear area	abrogated the increase in nuclear area and decrease in chromatin condensation	only minorly effected		only minorly effected		interfered with the slight decrease in nuclear area	interfered with the slight decrease in nuclear area and increase in chromatin condensation	showed no difference		showed no difference					had no effect	had no effect	abrogated increases; also recorded: abrogated the increase	increased DNA damage
